From PubChem BioAssay (NCI)
“And” between values parts separate entries of the source, which are not always exact repeats. Equal values may be shown once.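 GI50: concentration for 50% inhibition of growth. TGI marks complete inhibition of growth.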

Columns and labels:
Assay in all cases: DTP human tumour cell line panel, 384-well format
[1] = tested on: UACC-62 melanoma
[2] = tested on: UO-31 renal
[3] = tested on: SNB-75 CNS
[4] = tested on: ACHN renal
[5] = tested on: SN12C renal
[6] = tested on: NCI-H322M lung
[7] = tested on: LOX IMVI melanoma
[8] = tested on: SK-MEL-5 melanoma
[9] = tested on: HCC-2998 colon
[10] = tested on: COLO 205 colon
[11] = tested on: OVCAR-8 ovarian
[12] = tested on: CCRF-CEM leukemia
[13] = tested on: NCI/ADR-RES ovarian
[14] = tested on: NCI-H23 lung
[15] = tested on: T-47D breast
[16] = tested on: BT-549 breast
[17] = tested on: SF-268 CNS
[18] = tested on: SK-OV-3 ovarian
[19] = tested on: OVCAR-4 ovarian
[20] = tested on: RPMI-8226 leukemia
[21] = tested on: HS 578T breast
[22] = tested on: IGROV1 ovarian
[23] = tested on: HOP-62 NSCLC
[24] = tested on: EKVX NSCLC
[25] = tested on: HCT-15 colon
[26] = tested on: OVCAR-5 ovarian
[27] = tested on: SW-620 colon
[28] = tested on: SK-MEL-2 melanoma
[29] = tested on: A498 renal
[30] = tested on: SK-MEL-28 melanoma
[31] = tested on: HOP-92 NSCLC
[32] = tested on: M14 melanoma
[33] = tested on: A549 NSCLC
[34] = tested on: OVCAR-3 ovarian
[35] = tested on: MDA-MB-231 breast
[36] = tested on: MOLT-4 leukemia
[37] = tested on: K-562 leukemia
[38] = tested on: SF-539 CNS
[39] = tested on: PC-3 prostate
[40] = tested on: MCF7 breast
[41] = tested on: NCI-H226 lung
[42] = tested on: SF-295 CNS
[43] = tested on: MDA-MB-435 melanoma
[44] = tested on: 786-0 renal
[45] = tested on: HCT-116 colon
[46] = tested on: U251 glioblastoma
[47] = tested on: KM12 colon
[48] = tested on: RXF 393 renal
[49] = tested on: HL-60(TB) leukemia
[50] = tested on: CAKI-1 renal
[51] = tested on: SNB-19 CNS
[52] = tested on: MDA-MB-468 breast
[53] = tested on: DU-145 prostate
[54] = tested on: NCI-H460 NSCLC
[55] = tested on: TK-10 renal
[56] = tested on: MALME-3M melanoma
[57] = tested on: HT29 colon

## CCc1nc(C(N)=O)c(Nc2ccc(N3CCC(N4CCN(C)CC4)CC3)c(OC)c2)nc1NC1CCOCC1
[1]
  GI50: 0.396 µM and 0.214 µM
  TGI: 1.32 µM
[2]
  GI50: 0.457 µM and 0.231 µM
[3]
  GI50: 1.36 µM
  TGI: 4.16 µM
[4]
  GI50: 0.593 µM and 0.391 µM
  TGI: > 100 µM
[5]
  GI50: 0.168 µM and 0.0671 µM
  TGI: > 100 µM
[6]
  GI50: 0.674 µM and 0.246 µM
[7]
  GI50: 0.775 µM and 0.371 µM
[8]
  GI50: 0.661 µM and 0.406 µM
  TGI: > 100 µM
[9]
  GI50: 0.18 µM and 0.253 µM
  TGI: 5.55 µM and 3.08 µM
[10]
  GI50: 0.495 µM and 0.303 µM
  TGI: 5.23 µM and 1.1 µM
[11]
  GI50: 5.1 µM and 0.758 µM
  TGI: > 100 µM
[12]
  GI50: 1.73 µM and 0.828 µM
  TGI: 3.39 µM and 2.1 µM
[13]
  GI50: 3.26 µM and 2.24 µM
  TGI: > 100 µM
[14]
  GI50: 0.3 µM and 0.123 µM
  TGI: 5.54 µM and 0.617 µM
[15]
  TGI: > 100 µM
[16]
  GI50: 0.551 µM and 0.339 µM
  TGI: 2.58 µM and 1.73 µM
[17]
  GI50: 2.19 µM and 1.36 µM
  TGI: > 26.5 µM
[18]
  GI50: 0.339 µM and 0.16 µM
[19]
  GI50: > 100 µM
  TGI: > 100 µM
[20]
  GI50: 0.975 µM and 0.255 µM
  TGI: 4.2 µM and 0.984 µM
[21]
  GI50: 1.18 µM
  TGI: 3.54 µM
[22]
  GI50: 0.335 µM and 0.179 µM
  TGI: 1.62 µM and 0.484 µM
[23]
  GI50: 1.23 µM and 0.392 µM
[24]
  GI50: 0.463 µM
  TGI: 99.3 µM
[25]
  GI50: 0.458 µM and 0.318 µM
  TGI: > 100 µM
[26]
  GI50: 0.503 µM and 0.216 µM
[27]
  GI50: 0.587 µM and 0.444 µM
  TGI: 2.07 µM and 1.58 µM
[28]
  GI50: 0.242 µM
  TGI: 1.3 µM
[29]
  GI50: 0.619 µM and 0.283 µM
[30]
  GI50: 0.227 µM
  TGI: 0.986 µM
[31]
  GI50: 0.114 µM and 0.0363 µM
  TGI: 0.608 µM and 0.213 µM
[32]
  GI50: 0.402 µM and 0.239 µM
  TGI: 1.79 µM and 1.16 µM
[33]
  GI50: 0.533 µM and 0.259 µM
[34]
  GI50: 1.17 µM and 0.584 µM
  TGI: > 25.6 µM and 4.32 µM
[35]
  GI50: 0.474 µM and 0.37 µM
  TGI: 2.57 µM and 1.76 µM
[36]
  GI50: 0.371 µM and 0.191 µM
  TGI: 1.33 µM and 0.375 µM
[37]
  GI50: 1.25 µM
  TGI: 3.94 µM
[38]
  GI50: 1.91 µM and 0.638 µM
  TGI: 6.72 µM and 2.32 µM
[39]
  GI50: 0.385 µM and 0.672 µM
  TGI: > 100 µM
[40]
  GI50: 0.383 µM and 0.247 µM
[41]
  GI50: 0.584 µM and 0.593 µM
  TGI: 4.61 µM
[42]
  GI50: 4.62 µM and 1.04 µM
  TGI: > 20.9 µM and 3.07 µM
[43]
  GI50: 0.704 µM and 0.329 µM
  TGI: > 100 µM
[44]
  GI50: 1.03 µM and 0.313 µM
  TGI: 5.87 µM and 1.58 µM
[45]
  GI50: 0.494 µM and 0.294 µM
  TGI: 5.95 µM and 3.07 µM
[46]
  GI50: 6.48 µM and 0.834 µM
[47]
  GI50: 0.0353 µM and 0.0165 µM
[48]
  GI50: 1.17 µM and 0.208 µM
[49]
  GI50: 0.357 µM and 0.185 µM
  TGI: 1.03 µM and 0.403 µM
[50]
  GI50: 0.247 µM and 0.155 µM
  TGI: 0.556 µM
[51]
  GI50: 3.39 µM and 1.08 µM
  TGI: > 100 µM
[52]
  GI50: 2.15 µM
[53]
  GI50: 0.491 µM and 0.322 µM
[54]
  GI50: 0.465 µM and 0.292 µM
[55]
  GI50: 1.68 µM and 0.818 µM
[56]
  GI50: 0.302 µM and 0.155 µM
  TGI: 1.7 µM and 1.06 µM
[57]
  GI50: 0.282 µM and 0.174 µM
